Test results as given in ChEMBL document CHEMBL3217506, “Amidines bearing benzofuroxan or benzimidazole 1,3-dioxide core scaffolds as Trypanosoma cruzi-inhibitors: structural basis for their interactions with cruzipain” (Medchemcomm, 2012).

Experiments:
[1] = Cytotoxicity against human RBC assessed as hemolytic activity after 24 hrs by spectrophotometry; type: cell-based, Erythrocyte; conditions: human red blood cells (RBC), read-out: ID50
[2] = target: Cruzipain (Trypanosoma cruzi) (UniProt P25779); assay: Inhibition of Trypanosoma cruzi cruzipain using Z-Phe-Arg-AMC as substrate at 100 uM at pH 7.4 after 10 mins by spectrofluorimetry relative to untreated control
Chain of Cruzipain (Trypanosoma cruzi) (P25779 123-467 limits assumed): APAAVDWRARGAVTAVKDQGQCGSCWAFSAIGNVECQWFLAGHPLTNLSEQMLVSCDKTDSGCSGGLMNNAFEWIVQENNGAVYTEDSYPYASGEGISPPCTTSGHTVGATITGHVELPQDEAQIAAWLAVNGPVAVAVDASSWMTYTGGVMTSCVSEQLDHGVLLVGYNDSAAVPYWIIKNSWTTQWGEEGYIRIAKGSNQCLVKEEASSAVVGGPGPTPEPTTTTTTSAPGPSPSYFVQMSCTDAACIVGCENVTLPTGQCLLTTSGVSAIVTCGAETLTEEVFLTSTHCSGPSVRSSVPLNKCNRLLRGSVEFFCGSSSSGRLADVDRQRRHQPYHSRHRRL

[3] = target: Cruzipain (Trypanosoma cruzi) (UniProt P25779); assay: Inhibition of Trypanosoma cruzi cruzipain using Z-Phe-Arg-AMC as substrate at 100 uM at pH 5.3 after 10 mins by spectrofluorimetry relative to untreated control
[4] = Selectivity index, ratio of ID50 for human RBC to ID50 for epimastigote stage of Trypanosoma cruzi Tulahuen 2
[5] = target: Cruzipain (Trypanosoma cruzi) (UniProt P25779); assay: Inhibition of Trypanosoma cruzi cruzipain using Z-Phe-Arg-AMC as substrate at pH 7.4 after 10 mins by spectrofluorimetry relative to untreated control
Trypanosoma cruzi = assay: Antitrypanosomal activity against epimastigote stage of Trypanosoma cruzi Tulahuen 2 after 5 days relative to untreated control; type: functional; conditions: Tulahuen 2, 120 h, read-out: ID50 (the source's name)
[6] = target: Cruzipain (Trypanosoma cruzi) (UniProt P25779); assay: Inhibition of Trypanosoma cruzi cruzipain using Z-Phe-Arg-AMC as substrate at 100 uM at pH 5.3 after 10 mins by spectrofluorimetry in presence of Triton X-100 relative to untreated control

inhibition [2] [%] | inhibition [3] [%] | ID50 [5] [µM] | IC50 (Trypanosoma cruzi) [µM] | inhibition [6] [%] | SMILES | HC50 at 24 h [1] [µM] | Selectivity Index [4]
 |  | > 50 | 1.6 |  | O=S(=O)(/C=C/c1ccc2no[n+]([O-])c2c1)c1ccccc1 |  | 
29 | 11 |  |  |  | [O-][n+]1onc2ccc(CN3CCN(/C(=N/c4ccccc4)NCc4ccccc4)CC3)cc21 | 83 | 
 |  | 64.5 | 6.8 |  | N=C(N/N=C/c1ccc(O)cc1)SCc1ccc2no[n+]([O-])c2c1 |  | 
12 | 47 | 100 | 5.8 |  | [O-][n+]1onc2ccc(CN3CCN(/C(=N/c4ccccc4)Nc4ccccc4)CC3)cc21 | 105 | 18
 |  | 32 | > 25 |  | N=C(N)N/N=C/c1ccc(OCc2ccc3no[n+]([O-])c3c2)cc1 |  | 
25 | 34 | > 100 | 1.2 |  | [O-][n+]1onc2ccc(CN3CCN(/C(=N/c4ccccc4)NCCc4ccccc4)CC3)cc21 | 37 | 31
0.3 | 44 | 100 | 15 | 45 | [O-][n+]1onc2ccc(CN3CCN(/C(=N/c4ccccc4)NCc4ccco4)CC3)cc21 | > 200 | > 13

The remaining lines, values behind:

SMILES | inhibition [2] [%] | inhibition [3] [%] | ID50 [5] [µM] | IC50 (Trypanosoma cruzi) [µM] | inhibition [6] [%] | HC50 at 24 h [1] [µM] | Selectivity Index [4]
CC1(C)[N+]([O-])=c2ccc(CN3CCN(/C(=N/c4ccccc4)NCc4ccco4)CC3)cc2=[N+]1[O-] | 15 |  |  |  |  | > 200 | 
c1ccc(C/N=C(/Nc2ccccc2)N2CCNCC2)cc1 |  | 5.4 |  |  |  |  | 
C[C@@H]1[C@H](O)[C@@H](C)/C=C/C=C/C=C/C=C/C=C/C=C/C=C/[C@H](O[C@@H]2O[C@H](C)[C@@H](O)[C@H](N)[C@@H]2O)C[C@@H]2O[C@](O)(C[C@@H](O)C[C@@H](O)[C@H](O)CC[C@@H](O)C[C@@H](O)CC(=O)O[C@H]1C)C[C@H](O)[C@H]2C(=O)O |  |  |  |  |  |  | 10
CC1CS(=O)(=O)CCN1/N=C/c1ccc([N+](=O)[O-])o1 (stereo unspecified) [NIFURTIMOX] |  |  |  | 7.7 |  | > 100 | > 13
c1ccc(CC/N=C(/Nc2ccccc2)N2CCNCC2)cc1 |  | 3.2 |  |  |  |  | 
c1ccc(N/C(=N/Cc2ccco2)N2CCNCC2)cc1 |  | 10 |  |  |  |  | 
c1ccc(/N=C(/Nc2ccccc2)N2CCNCC2)cc1 |  | 6.3 |  |  |  |  | 
CC/C(=N\N=C(\N)S)c1cccc(Br)c1 |  |  | 0.1 |  |  |  | 
CC1(C)[N+]([O-])=c2ccc(CN3CCN(/C(=N/c4ccccc4)NCc4ccccc4)CC3)cc2=[N+]1[O-] | 34 |  |  |  |  | > 36 | 
CC1(C)[N+]([O-])=c2ccc(CN3CCN(/C(=N/c4ccccc4)NCCc4ccccc4)CC3)cc2=[N+]1[O-] | 30 |  |  | 1 |  | > 50 | > 50
O=C(Cn1ccnc1[N+](=O)[O-])NCc1ccccc1 [BENZNIDAZOLE] |  |  |  | 7.4 |  |  | 
